pIC50: −log10 of the molar value. Read-outs that look alike come from different tables or passages of the source.

The test system of test [1] is HL-60-S cells. The experiment in a line: DNA cleavage in HL-60-S cells. The format is cell-based, human. The note with it: 24 h. On the procedure: FIG. 23. Comparison of the concentration-dependent inductions of DNA cleavage by DAU (open symbols in A) and TT2 (closed symbols in B) at 24 h in HL-60-S (circles), HL-60-RV (squares) and HL-60-R8 (triangles) cells containing ^3H-prelabeled DNA in vitro. Results are expressed as [cpm in supernatant/cpm in supernatant+pellet]×100 at 24 h. For untreated controls (14.7±1.7% DNA fragmentation, striped areas), the supernatant (DNA fragments) is 12,815±1,358 cpm and the pellet (intact DNA) is 74,406±9,078 cpm.
(§1) The MDR HL-60-RV and HL-60-R8 cells were developed in Melvin S. Center's laboratory (Kansas State University) and similarly maintained in RPMI 1640 medium in the absence of drugs (Marsh W, et al, Cancer Res 46: 4053-4057, 1986; McGrath T et al, and Center M S: Biochem Biophys Res Commun 145: 1171-1176, 1987; Marsh W and Center M S: Cancer Res 47: 5080-5086, 1987; McGrath T, et al, Biochem Pharmacol 38: 3611-3619, 1989; Marquardt D, et al, Cancer Res 50: 1426-1430, 1990; Marquardt D and Center M S: J Natl Cancer Inst 83: 1089-1109, 1991; Krishnamachary N and Center M S; Cancer Res 53: 3658-3661, 1993). Every 4 weeks, these HL-60-RV and HL-60-R8 sublines were exposed to 41 nM DAU for 48 h to stabilize their MDR phenotype. This concentration of DAU, which is not cytotoxic to MDR HL-60 sublines, was removed from the culture medium at least 48 h before experimentation. […] RFs were determined by dividing the IC50 of the MDR cells by that of the sensitive WT parent cell line.
Drug-induced DNA cleavage was determined by intact chromatin precipitation, using L1210, HL-60-S, HL-60-RV and HL-60-R8 cells which were prelabeled with 1 μCi of ^3H-thymidine for 2 h at 37° C., washed with 3×1 ml of ice-cold PBS, collected by centrifugation, and resuspended in fresh FCS-containing RPMI 1640 medium at a density of about 1×10^6 cells/0.5 ml for L1210 and 0.5×10^6 cells/0.5 ml for HL cells. Except when otherwise specified, such cells containing prelabeled DNA were then exposed for 24 h to TTs and drugs known to induce DNA fragmentation. After centrifugation at 200×g for 10 min to discard the drugs and wash the cells, the intact cell pellets were lysed for 30 min in 0.5 ml of HLB, centrifuged at 12,000×g for 30 min to collect the supernatants, and resuspended in 0.5 ml of HLB. After another similar centrifugation, the radioactivities in the pooled supernatants (detergent-soluble low molecular weight DNA fragments) and the pellet (intact chromatin DNA) were determined by LSC: % DNA fragmentation=[cpm in supernatant/cpm in supernatant+pellet]×100. Before being counted in 6 ml of Bio-Safe NA, the intact pelleted chromatin was incubated for 2 h at 60° C. in the presence of 0.6 ml of NCS tissue solubilizer (Amersham).

Test [2] has as its system HL-60-R8 cells. The test is described as follows: Nucleoside transport in HL-60-R8 cells. Type of test: cell-based, human. The note with it: 15-min preincubation, 30 s.
Source text: FIG. 15. Comparison of the concentration-dependent inhibitions of the cellular transport of purine (A) and pyrimidine (B) nucleosides by DAU (open symbols) and TT2 (closed symbols) in HL-60-S (circles), HL-60-RV (squares) and HL-60-R8 (triangles) cells in vitro. Results are expressed as % of ^3H-adenosine (26,032±2,239 cpm, 100±9%, striped area in A) and ^3H-thymidine (17,934±1,398 cpm, 100±8%, striped area in B) transported into vehicle-treated control cells over 30 s.
as §1, with “phenotype.” for “phenotype. This concentration of DAU, which is not cytotoxic to MDR HL-60 sublines, was removed from the culture medium at least 48 h before experimentation.”, “line. […]” for “line.”

Test [3] concerns the target Malaria protease plasmepsin II (Plasmodium falciparum, UniProt P46925). The experiment in a line: Inhibition of malaria protease plasmepsin II. The format is biochemical.

Chain of Malaria protease plasmepsin II (P46925 125-453): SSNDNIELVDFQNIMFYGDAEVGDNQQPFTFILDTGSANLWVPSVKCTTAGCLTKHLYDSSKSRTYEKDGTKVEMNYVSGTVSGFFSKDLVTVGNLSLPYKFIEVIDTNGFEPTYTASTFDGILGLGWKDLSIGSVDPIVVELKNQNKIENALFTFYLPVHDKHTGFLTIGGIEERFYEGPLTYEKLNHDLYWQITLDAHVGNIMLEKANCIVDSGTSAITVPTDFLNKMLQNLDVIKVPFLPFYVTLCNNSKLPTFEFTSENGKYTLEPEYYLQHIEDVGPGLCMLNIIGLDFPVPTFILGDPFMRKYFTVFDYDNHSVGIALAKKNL

As to `COc1cccc2c1C(=O)c1c(O)c3c(c(O)c1C2=O)C[C@@](O)(C(C)=O)C[C@@H]3O[C@H]1C[C@H](N)[C@H](O)[C@H](C)O1` [DAU, daunomycin, reference compound], the “DNA cleavage, % above control level” value in test [1] (1.6 μM, control 15% DNA fragmentation) is recorded as 67%; in test [1] (4 μM), 18%. Besides, the “DNA cleavage, % below control level” value is recorded as 11% in test [1] (10 μM) and 14% in test [1] (25 μM). The “DNA cleavage, % above control level (submaximal)” value in test [1] (0.04-0.64 μM DAU) is listed as 11-58%.

For `COC1=CC(=O)C2=C(C1=O)C1C3=C(C(=O)C=CC3=O)C2c2ccccc21` (stereo not drawn) [TT2, 2-Methoxy-9,10-dihydro-9,10-[1′,2′]benzenoanthracene-1,4,5,8-tetraone], the pIC50 is 5.43 in test [2] (purine nucleoside, read-out: IC50, cellular transport of 3H-adenosine in HL-60-R8 cells) and 5.64 in test [2] (pyrimidine nucleoside, read-out: IC50, cellular transport of 3H-thymidine in HL-60-R8 cells). Besides, the “DNA cleavage, % above control level” value was found to be 37% in test [1] (4 μM) and 14% in test [1] (10 μM). Moreover, the “DNA cleavage, % below control level” value in test [1] (25 μM) is reported as 11%. Also, in test [1] (HL-60-S), the “times greater TT2 than DAU concentrations needed for more than 50% of DNA cleavage” value was “at least 2.5 times”.

For the molecule `COC1=C(Br)C(=O)C2=C(C1=O)C1C3=C(C(=O)C=C(N(C)C)C3=O)C2c2ccccc21` (stereo not drawn) [TT16, 2-Bromo-3-methoxy-6-(dimethylamino)-9,10-dihydro-9,10-[1′,2′]benzenoanthracene-1,4,5,8-tetraone], the pIC50 in test [3] is 4.63.

By pIC50 is commonly meant the negative decadic logarithm of the IC50, by convention in mol/L.

Values taken from US6828450B2, “Triptycene analogs” (Kansas State University Research Foundation, priority 2000, dated 2004).
